The text below walks through data of US12049439B2 (OrsoBio, Inc., priority 2018, dated 2024).

SMILES strings stand for the structures. Bounds are passed on as bounds.

For this assay, the system named is PC-3 cells. Description: PC-3 Oxygen Rate Consumption (OCR) Assay. It counts as cell-based. To be noted: Homo sapiens, 0.05 h, medium with 2% FBS, OCR at 3-min post-injection normalized to % increase over DMSO-treated cells, concentration for half-maximal OCR increase, read-out: EC50-PC3-OCR-FBS-3min. In a few lines:
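PC-3 cells seeded a day before, equilibrated 1 h in XF medium with 10 mM glucose, 1 mM pyruvate, 2% FBS, non-CO2 at 37 °C. Compound injected after basal OCR reads; OCR at 3 min post-injection normalized as % increase over DMSO, EC50 = half-maximal increase; six replicates.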
`Cc1ncsc1CCS(=O)(=O)Nc1ccc(C(F)(F)F)cc1C(=O)NC12CCC(C#N)(CC1)CC2` [Example 200, N-(4-cyanobicyclo[2.2.2]octan-1-yl)-2-((2-(4-methylthiazol-5-yl)ethyl)sulfonamido)-5-(trifluoromethyl)benzamide]: the EC50 stood at 5.09 µM.
Next, `Cc1ncsc1CCS(=O)(=O)Nc1ccc(C(F)(F)F)cc1C(=O)NC12CCC(F)(CC1)CC2` [Example 201, N-(4-fluorobicyclo[2.2.2]octan-1-yl)-2-((2-(4-methylthiazol-5-yl)ethyl)sulfonamido)-5-(trifluoromethyl)benzamide]: 1.29 µM; `CS(=O)(=O)Nc1cc(SC(F)(F)F)ccc1C(=O)NC12CCC(C#N)(CC1)CC2` [Example 202, N-(4-cyanobicyclo[2.2.2]octan-1-yl)-2-(methylsulfonamido)-4-((trifluoromethyl)thio)benzamide]: 9.32 µM; `CS(=O)(=O)Nc1cc(OC(F)(F)F)ccc1C(=O)NC12CCC(C#N)(CC1)CC2` [Example 203, N-(4-cyanobicyclo[2.2.2]octan-1-yl)-2-(methylsulfonamido)-4-(trifluoromethoxy)benzamide]: 23 µM.
For the compound `N#CC12CCC(NC(=O)c3cc(C(F)(F)F)ccc3NS(=O)(=O)C3CCOCC3)(CC1)CC2` [Example 204, N-(4-cyanobicyclo[2.2.2]octan-1-yl)-2-((tetrahydro-2H-pyran)-4-sulfonamido)-5-(trifluoromethyl)benzamide], the EC50 amounted to 15.7 µM.
On to `CN(C)S(=O)(=O)Nc1ccc(S(F)(F)(F)(F)F)cc1C(=O)NC12CCC(C#N)(CC1)CC2` [Example 205, N-(4-cyanobicyclo[2.2.2]octan-1-yl)-2-((N,N-dimethylsulfamoyl)amino)-5-(pentafluoro-λ^6-sulfanyl)benzamide], for which the EC50 was determined as 1.21 µM.
With `N#CC12CCC(NC(=O)c3cc(S(F)(F)(F)(F)F)ccc3NS(=O)(=O)N3CCOCC3)(CC1)CC2` [Example 206, N-(4-cyanobicyclo[2.2.2]octan-1-yl)-2-(morpholine-4-sulfonamido)-5-(pentafluoro-λ^6-sulfanyl)benzamide], the EC50 came to 2.71 µM.
Turning to `O=C(NC12CCC(C(F)(F)F)(CC1)CC2)c1cc(Cl)ccc1NS(=O)(=O)C1CCS(=O)(=O)CC1` [Example 207, 5-chloro-2-((1,1-dioxidotetrahydro-2H-thiopyran)-4-sulfonamido)-N-(4-(trifluoromethyl)bicyclo[2.2.2]octan-1-yl)benzamide], the EC50 was found to be 8.12 µM.
Next, `CS(=O)(=O)Nc1ccc(Cl)cc1C(=O)NC12CCC(C(F)(F)F)(CC1)CC2` [Example 208, 5-chloro-2-(methylsulfonamido)-N-(4-(trifluoromethyl)bicyclo[2.2.2]octan-1-yl)benzamide]: 10.6 µM; `N#CC1(S(=O)(=O)Nc2ccc(Cl)cc2C(=O)NC23CCC(C(F)(F)F)(CC2)CC3)CC1` [Example 209, 5-chloro-2-((1-cyanocyclopropane)-1-sulfonamido)-N-(4-(trifluoromethyl)bicyclo[2.2.2]octan-1-yl)benzamide]: 0.648 µM; `O=C(NC12CCC(C(F)(F)F)(CC1)CC2)c1cc(OC(F)(F)F)ccc1NS(=O)(=O)C1CCS(=O)(=O)CC1` [Example 210, 2-((1,1-dioxidotetrahydro-2H-thiopyran)-4-sulfonamido)-5-(trifluoromethoxy)-N-(4-(trifluoromethyl)bicyclo[2.2.2]octan-1-yl)benzamide]: 4.35 µM.
In the case of `N#CC12CCC(NC(=O)c3cc(Cl)ccc3NS(=O)(=O)C3(C#N)CC3)(CC1)CC2` [Example 211, 5-chloro-N-(4-cyanobicyclo[2.2.2]octan-1-yl)-2-((1-cyanocyclopropane)-1-sulfonamido)benzamide], the EC50 stood at 15.4 µM.
Next, `CS(=O)(=O)Nc1ccc(C(F)(F)F)cc1C(=O)NC12CC(C1)C2` [Example 212, N-(bicyclo[1.1.1]pentan-1-yl)-2-(methylsulfonamido)-5-(trifluoromethyl)benzamide]: 8.62 µM.
Turning to `CS(=O)(=O)Nc1ccc(Cl)cc1C(=O)NC12CCC(C#N)(CC1)CC2` [Example 213, 5-chloro-N-(4-cyanobicyclo[2.2.2]octan-1-yl)-2-(methylsulfonamido)benzamide], the EC50 amounted to 81.9 µM.
Regarding `CS(=O)(=O)Nc1cc(Cl)ccc1C(=O)NC12CCC(C#N)(CC1)CC2` [Example 214, 4-chloro-N-(4-cyanobicyclo[2.2.2]octan-1-yl)-2-(methylsulfonamido)benzamide], the EC50 turned out to be 26.3 µM.
Take `CS(=O)(=O)Nc1cc(F)c(F)cc1C(=O)NC12CCC(C#N)(CC1)CC2` [Example 215, N-(4-cyanobicyclo[2.2.2]octan-1-yl)-4,5-difluoro-2-(methylsulfonamido)benzamide]: the EC50 was determined as 21.4 µM.
On to `CCS(=O)(=O)Nc1cc(F)c(F)cc1C(=O)NC12CCC(C#N)(CC1)CC2` [Example 216, N-(4-cyanobicyclo[2.2.2]octan-1-yl)-4,5-difluoro-2-(ethylsulfonamido)benzamide], for which the EC50 was 16.9 µM.
`CS(=O)(=O)N1C2CCC1CC(NC(=O)c1ccc(F)cc1NS(=O)(=O)CCC(F)(F)F)C2` (stereo not drawn) [Example 217, 4-fluoro-N-(8-(methylsulfonyl)-8-azabicyclo[3.2.1]octan-3-yl)-2-((3,3,3-trifluoropropyl)sulfonamido)benzamide]: the EC50 was 112 µM.
As for `CS(=O)(=O)N1C2CCC1CC(NC(=O)c1ccc(Cl)cc1NS(=O)(=O)CCC(F)(F)F)C2` (stereo not drawn) [Example 218, 4-chloro-N-(8-(methylsulfonyl)-8-azabicyclo[3.2.1]octan-3-yl)-2-((3,3,3-trifluoropropyl)sulfonamido)benzamide], the EC50 turned out to be 53.4 µM.
In the case of `CS(=O)(=O)Nc1c(C(=O)NC23CCC(C#N)(CC2)CC3)ccc2ccccc12` [Example 219, N-(4-cyanobicyclo[2.2.2]octan-1-yl)-1-(methylsulfonamido)-2-naphthamide], the EC50 was no less than 200 µM.
As for `N#CC12CCC(NC(=O)c3cc(F)ccc3NS(=O)(=O)CCC(F)(F)F)(CC1)CC2` [Example 220, N-(4-cyanobicyclo[2.2.2]octan-1-yl)-5-fluoro-2-((3,3,3-trifluoropropyl)sulfonamido)benzamide], the EC50 amounted to 5.09 µM.
Consider `N#CC12CCC(NC(=O)c3cc(Cl)ccc3NS(=O)(=O)CCC(F)(F)F)(CC1)CC2` [Example 221, 5-chloro-N-(4-cyanobicyclo[2.2.2]octan-1-yl)-2-((3,3,3-trifluoropropyl)sulfonamido)benzamide], for which the EC50 amounted to 1.09 µM.
On to `N#CC12CCC(NC(=O)c3cc(F)ccc3NS(=O)(=O)CCC(F)(F)F)(CC1)C2` [Example 222, N-(4-cyanobicyclo[2.2.1]heptan-1-yl)-5-fluoro-2-((3,3,3-trifluoropropyl)sulfonamido)benzamide], for which the EC50 came out at 5.7 µM.
Next, `N#CC12CCC(NC(=O)c3ccc(F)cc3NS(=O)(=O)CCC(F)(F)F)(CC1)C2` [Example 223, N-(4-cyanobicyclo[2.2.1]heptan-1-yl)-4-fluoro-2-((3,3,3-trifluoropropyl)sulfonamido)benzamide]: 4.43 µM.
With `N#CC12CCC(NC(=O)c3cc(C(F)(F)F)ccc3NS(=O)(=O)N3CC(OC(F)F)C3)(CC1)CC2` [Example 224, N-(4-cyanobicyclo[2.2.2]octan-1-yl)-2-((3-(difluoromethoxy)azetidine)-1-sulfonamido)-5-(trifluoromethyl)benzamide], the EC50 was determined as 2.42 µM.
Next, `COC1(C)CN(S(=O)(=O)Nc2ccc(C(F)(F)F)cc2C(=O)NC23CCC(C#N)(CC2)CC3)C1` [Example 225, N-(4-cyanobicyclo[2.2.2]octan-1-yl)-2-((3-methoxy-3-methylazetidine)-1-sulfonamido)-5-(trifluoromethyl)benzamide]: 6.74 µM; `N#CC12CCC(NC(=O)c3ccc(SC(F)(F)F)cc3NS(=O)(=O)C3(C#N)CC3)(CC1)CC2` [Example 226, N-(4-cyanobicyclo[2.2.2]octan-1-yl)-2-((1-cyanocyclopropane)-1-sulfonamido)-4-((trifluoromethyl)thio)benzamide]: 7.1 µM.
For `N#CC12CCC(NC(=O)c3cc(C(F)(F)F)ccc3NS(=O)(=O)N3CC(OC(F)(F)F)C3)(CC1)CC2` [Example 227, N-(4-cyanobicyclo[2.2.2]octan-1-yl)-2-((3-(trifluoromethoxy)azetidine)-1-sulfonamido)-5-(trifluoromethyl)benzamide], the EC50 was found to be 1.45 µM.
Regarding `N#CCCS(=O)(=O)Nc1ccc(Cl)cc1C(=O)NC12CC(C(F)(F)F)(C1)C2` [Example 228, 5-chloro-2-((2-cyanoethyl)sulfonamido)-N-(3-(trifluoromethyl)bicyclo[1.1.1]pentan-1-yl)benzamide], the EC50 came to 3.37 µM.
As for `CS(=O)(=O)Nc1ccc(C#N)cc1C(=O)NC12CCC(C(F)(F)F)(CC1)CC2` [Example 229, 5-cyano-2-(methylsulfonamido)-N-(4-(trifluoromethyl)bicyclo[2.2.2]octan-1-yl)benzamide], the EC50 came out at 4.42 µM.
For the compound `O=C(NC12CCC(C(F)(F)F)(CC1)CC2)c1ccc(C(F)(F)F)cc1NS(=O)(=O)C1CCS(=O)(=O)CC1` [Example 230, 2-((1,1-dioxidotetrahydro-2H-thiopyran)-4-sulfonamido)-4-(trifluoromethyl)-N-(4-(trifluoromethyl)bicyclo[2.2.2]octan-1-yl)benzamide], the EC50 worked out at 5.59 µM.
Next, `O=C(NC12CCC(C(F)(F)F)(CC1)CC2)c1ccc(F)cc1NS(=O)(=O)N1CCS(=O)(=O)CC1` [Example 231, 2-((1,1-dioxidothiomorpholine)-4-sulfonamido)-4-fluoro-N-(4-(trifluoromethyl)bicyclo[2.2.2]octan-1-yl)benzamide]: 4.69 µM.
Consider `N#CC1CC2(C1)CN(S(=O)(=O)Nc1cc(F)c(F)cc1C(=O)NC13CC(C(F)(F)F)(C1)C3)C2` [Example 232, 2-((6-cyano-2-azaspiro[3.3]heptane)-2-sulfonamido)-4,5-difluoro-N-(3-(trifluoromethyl)bicyclo[1.1.1]pentan-1-yl)benzamide], for which the EC50 worked out at 5.58 µM.
